Assay [1] concerns Dialister. Put plainly: In vitro fermentation study 2: intestinal batch fermentation with fecal suspension, 16S rRNA Illumina sequencing and flow cytometry. It counts as cell-based, Dialister spp. Particulars: fermentation supernatant at 24 h, donor C, FIG. 1B. The procedure:
At the start of this intestinal batch fermentation incubation, all test ingredients were added from stock solutions to the modified nutritional medium, containing (g/l): 2.5 K2HPO4, 10.9 KH2PO4, 2 NaHCO3, 2 yeast extract, 2 peptone, 1 mucin, 0.5 cystein, 2 Tween 80, 2 glucose, 2 starch, 2 cellobiose, 0.1 NaCl, 0.01 MgSO4·7H2O, 0.01 CaCl2·6H2O, 0.05 hemin, 0.5 bile salts.
The following compounds were added from stock solutions prepared in water: • Beta-carotene, • Vitamin B3, • Vitamin B5, • Vitamin B7, • Fructooligosaccharides (positive control)
As a source of the microbial community, freshly prepared fecal suspension from a donor was added to the reactors. […] All tests, except the blanks, were performed in single repetition. Incubation conditions were 48 h at 37° C., under shaking (90 rpm) and anaerobic conditions.
Microbial composition: Illumina sequencing was performed at the start and after 24 h of incubation. The technique targets the 16S rRNA gene that consists of variable and conserved regions, spread over the gene. Due to their key role in protein expression, the conserved regions are characterized by very low evolutionary rates.
The methodology applied involves primers that span 2 hypervariable regions (V3-V4) of the 16S rRNA gene. Using a pair-end sequencing approach, sequencing of 2×250 bp results in 424 bp amplicons. Such fragments are taxonomically more informative as compared to smaller fragments. Samples that were analyzed with Illumina sequencing were also analyzed with flow cytometry to determine the number of total bacterial cells, thus allowing to convert the proportional values obtained with Illumina into absolute quantities. Samples were analyzed on a BDFacs verse. The samples were run using the high flow rate. Bacterial cells were separated from medium debris and signal noise by applying a threshold level of 200 on the SYTO channel. Proper parent and daughter gates were set to determine all populations.
In general terms: Flow cytometry measures light scatter and fluorescence of single cells or particles in a stream.

Assay [2] deals with Dialister. Put plainly: In vitro fermentation study 1: intestinal batch fermentation with fecal suspension, shotgun metagenome sequencing. It counts as cell-based, Dialister spp. Particulars: fermentation supernatant at 24 hours; all tested concentrations (0.2x, 1x, 5x); FIG. 1A. As for the experimental part:
At the start of this intestinal batch fermentation incubation, all test ingredients were added from stock solutions to the modified nutritional medium, containing (g/l): 2.5 K2HPO4, 10.9 KH2PO4, 2 NaHCO3, 2 yeast extract, 2 peptone, 1 mucin, 0.5 cysteine, 2 Tween 80, 2 glucose, 2 starch, 2 cellobiose, 0.1 NaCl, 0.01 MgSO4·7H2O, 0.01 CaCl2·6H2O, 0.05 hemin, 0.5 bile salts.
The following compounds were added from stock solutions prepared in water for vitamin B2 and B9, and in ethanol for vitamin K1, DHA and EPA:
Each compound was tested in three different concentrations. As a source of the microbial community, freshly prepared fecal suspension from a donor was added to the reactors. […] All tests, except the blanks, were performed in single repetition. Incubation conditions were 48 h at 37° C., under shaking (90 rpm) and anaerobic conditions.
Microbial composition: Total DNA was extracted from all fermentation samples collected throughout the study using the QIAamp DNA stool minikit (Qiagen, Crawley, United Kingdom) according to the manufacturer's instructions, apart from addition of a bead-beating step and increasing the lysis temperature to 95° C. as described previously. After DNA isolation, DNA was quantified using the Qubit High Sensitivity DNA assay (Thermo Fisher). Whole metagenome libraries were then prepared using the Illumina Nextera XT kit (Illumina) in accordance with the manufacturer's instructions, with the following modifications: Firstly, tagmentation time was increased to 7 min and secondly, following incorporation of indices and Ampure purification of the products, the samples were each individually sized by running on an Agilent High Sensitivity Chip (Agilent) and quantified using the Qubit High Sensitivity DNA assay (Thermo Fisher) in accordance with Teagasc Sequencing Platform SOPs. […] Delivered raw FASTQ sequence files were quality checked as follows: poor quality and duplicate read removal, as well as trimming was implemented using a combination of SAM and Picard tools. Taxonomy was assigned to the reads using the Metaphlan2 software.

The subject of a further assay is fecal Dialister. Description: Clinical study: randomized, double-blind, placebo-controlled study of colon-targeted vitamins, fecal microbial composition. Conditions: human, colon-release capsule once daily for four weeks, fecal samples; FIG. 1C. It counts as in vivo. The source says: Twelve participants were allocated to each of the six vitamin groups, and 24 participants allocated to the placebo group. All 96 participants completed the intervention. To be considered eligible for enrollment into the study, participants have to be able to give written informed consent; be aged between 20 and 50 years of age; have a BMI of between 18.5-30 Kg/m2; have a stable body weight (<5% change) over the past 3-months; be in generally good health, as determined by the investigator; have not consumed dietary supplements, prebiotic, probiotic, dietary or fiber-rich supplements within 4 weeks prior to baseline visit and be willing to avoid these supplements until the end of the study; be willing to avoid liver consumption for the duration for the study, be willing to maintain their current level of physical activity for the duration of the study; and be willing to consume the IP daily for the duration of the study. […] Before the randomization visit, participants food frequency questionnaires were analyzed to ensure their typical fiber intake is <30 g fiber/day. […] At the baseline visit (Visit 2), participants retuned a fecal samples collected in the previous 48 hours and eligibility was assessed. […] Participants returned their IP and compliance was assessed. […]

In the case of `CC(C)(CO)[C@@H](O)C(=O)NCCC(=O)O` [vitamin B5, Pantothenic acid], in the assay with Dialister [1] (at 0.2× and 5×), the “Dialister relative abundances compared to control” value (“Dialister relative abundances” below) is listed as “increase”.
Regarding `Nc1nc2ncc(CNc3ccc(C(=O)N[C@@H](CCC(=O)O)C(=O)O)cc3)nc2c(=O)[nH]1` [vitamin B9, Folic acid], the “Dialister relative abundances” value with Dialister [2] was “no distinct increase”.
Still for that read-out and setting: next, `Cc1cc2nc3c(=O)[nH]c(=O)nc-3n(C[C@H](O)[C@H](O)[C@H](O)CO)c2cc1C` [vitamin B2, Riboflavin]: “substantial increase”; `CC1=C(C/C=C(\C)CCC[C@H](C)CCC[C@H](C)CCCC(C)C)C(=O)c2ccccc2C1=O` [vitamin K1]: “substantial increase”.
Consider `C=C1CC[C@H](O)C/C1=C/C=C1\CCC[C@]2(C)[C@@H]([C@H](C)CCCC(C)C)CC[C@@H]12` [vitamin D3, cholecalciferol], for which the “Dialister relative abundance compared to placebo” value with fecal Dialister is given as “increase”.
Consider `O=C(O)CCCC[C@@H]1SC[C@@H]2NC(=O)N[C@@H]21` [vitamin B7, Biotin], for which the “Dialister relative abundances” value in the assay with Dialister [1] (all tested concentrations) is reported as “no distinct increase”.
In the case of vitamin A, in the assay with fecal Dialister, the “Dialister relative abundance compared to placebo” value was “increase”.
For the compound `CC1=C(/C=C/C(C)=C/C=C/C(C)=C/C=C/C=C(C)/C=C/C=C(C)/C=C/C2=C(C)CCCC2(C)C)C(C)(C)CCC1` [beta-carotene, Beta-carotene], the “Dialister relative abundances” value in the assay on Dialister [1] (all tested concentrations) is “increase”.
Regarding `NC(=O)c1cccnc1` [vitamin B3, Niacinamide], in the assay with Dialister [1] (all tested concentrations), the “Dialister relative abundances” value is “no distinct increase”.

Values taken from patent US12728109B2, “Method of increasing the population of Dialister spp. in the gut microbiome” (DSM IP ASSETS B.V., priority 2020, dated 2026).
